Experimental data: patent publication US8957238B2, “Process for preparing malathion for pharmaceutical use” (priority 2005, dated 2015)

Test: Storage stability of dry pharmaceutical grade malathion, HPLC (Example 18)
Type: physicochemical
Protocol: Purity was determined using a high performance liquid chromatography (HPLC) instrument with a variable wavelength detector.
Isomalathion content was determined using a high performance liquid chromatography (HPLC) instrument with a variable wavelength detector.
Four (4) samples of Dry Pharmaceutical Grade Malathion from Example 16, each weighing about 3-3.5 grams, were placed in separate clear glass bottles closed by a cap coated with polytetrafluoroethylene (PTFE). Each bottle was then inserted into a separate black polyethylene (PE) bag, which was tightly closed with a strip fastener. Each bag was then placed in a separate carton box.
The four (4) samples were stored for three (3) months under the following conditions: • Sample One: 40° C.±2° C. and 75%±5% relative humidity, • Sample Two: 30° C.±2° C. and 60%±5% relative humidity, • Sample Three: 25° C.±2° C. and 60%±5% relative humidity, and • Sample Four: 5° C.±3° C. and ambient relative humidity
The purity of each sample was determined after storage for one (1), two (2), and three (3) months using HPLC as set forth above (See Methodology and Protocols: End-of-Process Determination of Assay, Purity, and Impurities Other Than Isomalathion, End-of-Process Determination of Isomalathion).

[1] = Storage at 30° C. ± 2° C. and 60% ± 5% relative humidity
[2] = Storage at 40° C. ± 2° C. and 75% ± 5% relative humidity

## CCOC(=O)CC(SP(=S)(OC)OC)C(=O)OCC (stereo not shown) [[(dimethoxyphosphinothioyl)thio]butanedioic acid diethyl ester]
[1]
  Isomalathion Quantity After 1 Month: 0.03 % w/w
  Isomalathion Quantity After 2 Months: 0.04 % w/w
  Isomalathion Quantity After 3 Months: 0.06 % w/w
  Malaoxon Quantity After 1 Month: <0.05 (LOD) % w/w
  Malaoxon Quantity After 2 Months: <0.05 (LOD) % w/w
  Malaoxon Quantity After 3 Months: <0.05 (LOD) % w/w
  MeOOSPO Quantity After 1 Month: <0.04 (LOD) % w/w
  MeOOSPO Quantity After 2 Months: <0.04 (LOD) % w/w
  MeOOSPO Quantity After 3 Months: <0.04 (LOD) % w/w
  MeOOSPS Quantity After 1 Month: 0.1 % w/w
  MeOOSPS Quantity After 2 Months: 0.1 % w/w
  MeOOSPS Quantity After 3 Months: 0.1 % w/w
  MeOSSPO Quantity After 1 Month: <0.02 (LOD) % w/w
  MeOSSPO Quantity After 2 Months: <0.02 (LOD) % w/w
  MeOSSPO Quantity After 3 Months: <0.02 (LOD) % w/w
  Methyl malathion Quantity After 1 Month: 0.05 % w/w
  Methyl malathion Quantity After 2 Months: 0.06 % w/w
  Methyl malathion Quantity After 3 Months: 0.06 % w/w
  O,O-Me, Et Malathion analog Quantity After 1 Month: 0.08 % w/w
  O,O-Me, Et Malathion analog Quantity After 2 Months: 0.08 % w/w
  O,O-Me, Et Malathion analog Quantity After 3 Months: 0.07 % w/w
  Tetraethyl dithiodisuccinate Quantity After 1 Month: 0.06 % w/w
  Tetraethyl dithiodisuccinate Quantity After 2 Months: 0.05 % w/w
  Tetraethyl dithiodisuccinate Quantity After 3 Months: 0.06 % w/w
  Unknown (RRT = 0.06) Quantity After 1 Month: <0.02 (LOD) % w/w
  Unknown (RRT = 0.06) Quantity After 2 Months: <0.02 (LOD) % w/w
  Unknown (RRT = 0.06) Quantity After 3 Months: 0.04 % w/w
  Unknown (RRT = 0.27) Quantity After 1 Month: <0.02 (LOD) % w/w
  Unknown (RRT = 0.27) Quantity After 2 Months: 0.07 % w/w
  Unknown (RRT = 0.27) Quantity After 3 Months: 0.15 % w/w
  Unknown (RRT = 0.38) Quantity After 1 Month: 0.04 % w/w
  Unknown (RRT = 0.38) Quantity After 2 Months: 0.04 % w/w
  Unknown (RRT = 0.38) Quantity After 3 Months: 0.04 % w/w
[2]
  Diethyl fumarate Quantity After 1 Month: <0.01 (LOD) % w/w
  Diethyl fumarate Quantity After 2 Months: <0.01 (LOD) % w/w
  Diethyl fumarate Quantity After 3 Months: <0.02 (LOQ) % w/w
  Dimethyl malathion Quantity After 1 Month: <0.02 (LOD) % w/w
  Dimethyl malathion Quantity After 2 Months: <0.02 (LOD) % w/w
  Dimethyl malathion Quantity After 3 Months: <0.02 (LOD) % w/w
  Isomalathion Quantity After 1 Month: 0.06 % w/w
  Isomalathion Quantity After 2 Months: 0.1 % w/w
  Isomalathion Quantity After 3 Months: 0.1 % w/w
  Malaoxon Quantity After 1 Month: <0.05 (LOD) % w/w
  Malaoxon Quantity After 2 Months: <0.05 (LOD) % w/w
  Malaoxon Quantity After 3 Months: <0.05 (LOD) % w/w
  MeOOSPO Quantity After 1 Month: <0.04 (LOD) % w/w
  MeOOSPO Quantity After 2 Months: <0.04 (LOD) % w/w
  MeOOSPO Quantity After 3 Months: 0.05 % w/w
  MeOOSPS Quantity After 1 Month: 0.1 % w/w
  MeOOSPS Quantity After 2 Months: 0.2 % w/w
  MeOOSPS Quantity After 3 Months: 0.2 % w/w
  MeOSSPO Quantity After 1 Month: <0.02 (LOD) % w/w
  MeOSSPO Quantity After 2 Months: <0.02 (LOD) % w/w
  MeOSSPO Quantity After 3 Months: <0.02 (LOD) % w/w
  Methyl malathion Quantity After 1 Month: 0.06 % w/w
  Methyl malathion Quantity After 2 Months: 0.06 % w/w
  Methyl malathion Quantity After 3 Months: 0.06 % w/w
  O,O-Me, Et Malathion analog Quantity After 1 Month: 0.08 % w/w
  O,O-Me, Et Malathion analog Quantity After 2 Months: 0.07 % w/w
  O,O-Me, Et Malathion analog Quantity After 3 Months: 0.07 % w/w
  Tetraethyl dithiodisuccinate Quantity After 1 Month: 0.06 % w/w
  Tetraethyl dithiodisuccinate Quantity After 2 Months: 0.05 % w/w
  Tetraethyl dithiodisuccinate Quantity After 3 Months: 0.07 % w/w
  Unknown (RRT = 0.06) Quantity After 1 Month: <0.02 (LOD) % w/w
  Unknown (RRT = 0.06) Quantity After 2 Months: <0.02 (LOD) % w/w
  Unknown (RRT = 0.06) Quantity After 3 Months: 0.04 % w/w
  Unknown (RRT = 0.25) Quantity After 1 Month: <0.02 (LOD) % w/w
  Unknown (RRT = 0.25) Quantity After 2 Months: 0.06 % w/w
  Unknown (RRT = 0.25) Quantity After 3 Months: 0.12 % w/w
  Unknown (RRT = 0.27) Quantity After 1 Month: 0.10 % w/w
  Unknown (RRT = 0.27) Quantity After 2 Months: 0.38 % w/w
  Unknown (RRT = 0.27) Quantity After 3 Months: 0.76 % w/w
  Unknown (RRT = 0.38) Quantity After 1 Month: 0.04 % w/w
  Unknown (RRT = 0.38) Quantity After 2 Months: 0.04 % w/w
  Unknown (RRT = 0.38) Quantity After 3 Months: 0.04 % w/w
Three (3) months at 5, 25, 30 and 40° C. conditions
  Storage stability (conclusion in words): storage stable
